Data: publication PMC9188596, “Structural basis of resistance to herbicides that target acetohydroxyacid synthase” (Nature Communications, 2022)
Values joined by “and” are separate entries in the source; they are usually repeats but may differ in a detail not shown here. Identical values can stand only once. “Also recorded” adds a separate entry of the source. Like-named read-outs stand apart in the source and are kept apart here.

Columns and labels:
AtAHAS S653T mutant [1] = target: T1, AtAHAS S653T mutant (Arabidopsis thaliana, UniProt P17597, S653T); assay: biochemical
Procedure: (§1) Standard assays were performed using a continuous spectrophotometric method measuring the disappearance of pyruvate. The standard buffer contained 50 mM potassium phosphate, pH 7.2, 1 mM ThDP, 10 mM MgCl2, and 10 µM FAD. The concentration of pyruvate was in the range 100–160 mM, as described in the text, methods, or figure legends.
(§2) Supplementary Figure 6. Measurement of the Ki values for WT AtAHAS and the mutants.
(§3) The error bars represent the standard error of the mean of two independent replicates. [I] =
(§4) inhibitor concentration. Source data are provided with this paper.
(§5) (1 picture or pasted object on this page, not shown here)

AtAHAS P197T mutant [2] = target: T2, AtAHAS P197T mutant (Arabidopsis thaliana, UniProt P17597, P197T); assay: biochemical
Procedure: as §1, §2, §3, §4, §5

AtAHAS W574L mutant [3] = target: T3, AtAHAS W574L mutant (Arabidopsis thaliana, UniProt P17597, W574L); assay: biochemical; conditions: for increase in Ki / loss of affinity compared to WT: W574L vs WT
Procedure: as §1, §2, §3, §4, §5

AtAHAS P197L mutant [4] = target: T4, AtAHAS P197L mutant (Arabidopsis thaliana, UniProt P17597, P197L); assay: biochemical
Procedure: as §1, §2, §3, §4, §5

WT AtAHAS [5] = target: T5, WT AtAHAS (Arabidopsis thaliana, UniProt P17597); type: biochemical; conditions: for k3 (rate of recovery) / kiapp (apparent rate of enzyme inactivation): 160 mM pyruvate, 30 °C, ± SEM; for k3, single progress curve (Supplementary Figure 8) / kiapp, single progress curve (Supplementary Figure 8): individual replicate of triplicate
Procedure: as §1
(§6) AtAHAS was assayed in the standard assay buffer containing 160 mM pyruvate, at 30 °C. For AtAHAS activation the progress curve corresponding to the lag-phase was fitted to Eq. (8) of Lonhienne et al.[14]. For the time dependent accumulative inhibition of AtAHAS the progress curves were fitted to Equation 9 of Lonhienne et al.[12].
Supplementary Figure 8. Measurement of the rate constants of accumulative inhibition for WT AtAHAS and its mutants. The progress curves were fitted to the equation of accumulative inhibition (Equation 7 2). The rate constants of enzyme inactivation ( kiapp) and enzyme recovery (k3) were measured in triplicate. Source data are provided with this paper.

AtAHAS S653T mutant [6] = target: T1, AtAHAS S653T mutant; type: biochemical; conditions: for kiapp/k3 (efficiency of accumulative inhibition) / k3 (rate of recovery) / kiapp (apparent rate of enzyme inactivation) / k3, single progress curve (Supplementary Figure 8) / kiapp, single progress curve (Supplementary Figure 8): S653T; for k3 (rate of recovery) / kiapp (apparent rate of enzyme inactivation): 160 mM pyruvate, 30 °C, ± SEM; for k3, single progress curve (Supplementary Figure 8) / kiapp, single progress curve (Supplementary Figure 8): individual replicate of triplicate
Procedure: as §1, §6
(§7) Supplementary Figure 8. Measurement of the rate constants of accumulative inhibition for WT AtAHAS and its mutants. The progress curves were fitted to the equation of accumulative inhibition (Equation 7 2). The rate constants of enzyme inactivation ( kiapp) and enzyme recovery (k3) were measured in triplicate. Source data are provided with this paper. […]

AtAHAS P197T mutant [7] = target: T2, AtAHAS P197T mutant; type: biochemical; conditions: for k3 (rate of recovery) / kiapp (apparent rate of enzyme inactivation) / kiapp/k3 (efficiency of accumulative inhibition) / k3, single progress curve (Supplementary Figure 8) / kiapp, single progress curve (Supplementary Figure 8): P197T; for k3 (rate of recovery) / kiapp (apparent rate of enzyme inactivation): 160 mM pyruvate, 30 °C; for k3 (rate of recovery) / kiapp (apparent rate of enzyme inactivation) / kiapp/k3 (efficiency of accumulative inhibition): NAI = no accumulative inhibition detected; for k3, single progress curve (Supplementary Figure 8) / kiapp, single progress curve (Supplementary Figure 8): individual replicate of triplicate
Procedure: as §1, §6, §7

AtAHAS W574L mutant [8] = target: T3, AtAHAS W574L mutant; type: biochemical; conditions: for k3 (rate of recovery) / kiapp (apparent rate of enzyme inactivation): 160 mM pyruvate, 30 °C; for k3 (rate of recovery) / kiapp (apparent rate of enzyme inactivation) / kiapp/k3 (efficiency of accumulative inhibition): NAI = no accumulative inhibition detected
Procedure: as §1, §6, §7

AtAHAS P197L mutant [9] = target: T4, AtAHAS P197L mutant; type: biochemical; conditions: for k3 (rate of recovery) / kiapp (apparent rate of enzyme inactivation): 160 mM pyruvate, 30 °C; for k3 (rate of recovery) / kiapp (apparent rate of enzyme inactivation) / kiapp/k3 (efficiency of accumulative inhibition): NAI = no accumulative inhibition detected; for k3, single progress curve (Supplementary Figure 8) / kiapp, single progress curve (Supplementary Figure 8): individual replicate of triplicate
Procedure: as §1, §6, §7

WT AtAHAS [10] = target: T5, WT AtAHAS; conditions: cited from earlier work
[11] = Ki, S653T mutant, ± standard error of the mean
[12] = Ki (Supplementary Figure 6), P197T, fit of % activity remaining vs [I], two independent replicates
[13] = Ki, P197T mutant, ± standard error of the mean
[14] = Ki, W574L mutant, ± standard error of the mean
[15] = Ki (Supplementary Figure 6), P197L, fit of % activity remaining vs [I], two independent replicates
[16] = Ki, P197L mutant, ± standard error of the mean
[17] = ± standard error of the mean, ref Garcia et al.[13]
[18] = individual replicate of triplicate

Structure (SMILES): CC(C)C1(C)N=C(c2nc3ccccc3cc2C(=O)O)NC1=O (stereo not shown) [IQ, imazaquin]
- Ki (AtAHAS S653T mutant [1]; Ki (Supplementary Figure 6), S653T, fit of % activity remaining vs [I], two independent replicates): 240 ± 25.5 µM
- Ki (AtAHAS S653T mutant [1]; [11]): 240 ± 26 µM
- increase in Ki compared to WT (AtAHAS S653T mutant [1]; S653T vs WT): more than 10 fold
- Ki (AtAHAS P197T mutant [2]; [12]): 12.4 ± 1.83 µM
- Ki (AtAHAS P197T mutant [2]; [13]): 12.4 ± 1.8 µM
- Ki (AtAHAS W574L mutant [3]; [14]): 704 ± 58.5 µM
- increase in Ki / loss of affinity compared to WT (AtAHAS W574L mutant [3]): 38 fold
- Ki (AtAHAS P197L mutant [4]; [15]): 13.8 ± 1.14 µM
- Ki (AtAHAS P197L mutant [4]; [16]): 13.8 ± 1.1 µM
- accumulative inhibition (in words) (WT AtAHAS [5]): irreversible
- kiapp/k3 (efficiency of accumulative inhibition) (WT AtAHAS [5]): >10^11
- k3 (rate of recovery) (WT AtAHAS [5]): <1e-12 min⁻¹
- kiapp (apparent rate of enzyme inactivation) (WT AtAHAS [5]): 0.86 ± 0.03 min⁻¹
- k3, single progress curve (Supplementary Figure 8) (WT AtAHAS [5]): ~ 0 min-1
- kiapp, single progress curve (Supplementary Figure 8) (WT AtAHAS [5]): 0.86 min⁻¹ and 0.92 min⁻¹ and 0.83 min⁻¹
- kiapp/k3 (efficiency of accumulative inhibition) (AtAHAS S653T mutant [6]): >10^11
- k3 (rate of recovery) (AtAHAS S653T mutant [6]): <1e-12 min⁻¹
- kiapp (apparent rate of enzyme inactivation) (AtAHAS S653T mutant [6]): 0.37 ± 0.017 min⁻¹
- k3, single progress curve (Supplementary Figure 8) (AtAHAS S653T mutant [6]): ~ 0 min-1
- kiapp, single progress curve (Supplementary Figure 8) (AtAHAS S653T mutant [6]): 0.34 min⁻¹ and 0.38 min⁻¹ and 0.39 min⁻¹
- k3 (rate of recovery) (AtAHAS P197T mutant [7]): <1e-12 min⁻¹
- kiapp (apparent rate of enzyme inactivation) (AtAHAS P197T mutant [7]): 0.27 ± 0.012 min⁻¹
- kiapp/k3 (efficiency of accumulative inhibition) (AtAHAS P197T mutant [7]): >10^11
- k3, single progress curve (Supplementary Figure 8) (AtAHAS P197T mutant [7]): ~ 0 min-1
- kiapp, single progress curve (Supplementary Figure 8) (AtAHAS P197T mutant [7]): 0.29 min-1 and 0.28 min-1 (2×)
- k3 (rate of recovery) (AtAHAS W574L mutant [8]): NAI
- kiapp (apparent rate of enzyme inactivation) (AtAHAS W574L mutant [8]): NAI
- kiapp/k3 (efficiency of accumulative inhibition) (AtAHAS W574L mutant [8]): NAI
- k3 (rate of recovery) (AtAHAS P197L mutant [9]): <1e-12 min⁻¹
- kiapp (apparent rate of enzyme inactivation) (AtAHAS P197L mutant [9]): 0.26 ± 0.008 min⁻¹
- kiapp/k3 (efficiency of accumulative inhibition) (AtAHAS P197L mutant [9]): >10^11
- k3, single progress curve (Supplementary Figure 8) (AtAHAS P197L mutant [9]): ~ 0 min-1
- kiapp, single progress curve (Supplementary Figure 8) (AtAHAS P197L mutant [9]): 0.25 min-1 (2×) and 0.26 min-1
- Ki (WT AtAHAS [10]): 18 µM
- Ki (WT AtAHAS [10]; [17]): 18.5 ± 2 µM

Structure (SMILES): COc1cc(OC)nc(Oc2cccc(Oc3nc(OC)cc(OC)n3)c2C(=O)O)n1 [BS, bispyribac]
- Ki (AtAHAS S653T mutant [1]; [11]): 0.09 ± 0.0131 µM
- loss of affinity (AtAHAS S653T mutant [1]; S653T vs WT): ~ 50%
- Ki (AtAHAS P197T mutant [2]; [12]): 0.106 ± 0.00483 µM
- Ki (AtAHAS P197T mutant [2]; [13]): 0.106 ± 0.0048 µM
- increase in Ki / loss of affinity compared to WT (AtAHAS P197T mutant [2]; P197T vs WT): around three-fold
- loss of affinity (AtAHAS P197T mutant [2]; P197T vs WT): ~ 50%
- Ki (AtAHAS W574L mutant [3]; Ki (Supplementary Figure 6), W574L, fit of % activity remaining vs [I], two independent replicates): 6.11 ± 0.988 µM
- Ki (AtAHAS W574L mutant [3]; [14]): 6.1 ± 1 µM
- increase in Ki / loss of affinity compared to WT (AtAHAS W574L mutant [3]): 150 fold
- Ki (AtAHAS P197L mutant [4]; [15]): 0.115 ± 0.0134 µM
- Ki (AtAHAS P197L mutant [4]; [16]): 0.115 ± 0.013 µM
- loss of affinity (AtAHAS P197L mutant [4]; P197L vs WT): ~ 50%
- kiapp/k3 (efficiency of accumulative inhibition) (WT AtAHAS [5]): 18
- k3 (rate of recovery) (WT AtAHAS [5]): 0.018 ± 0.002 min⁻¹
- kiapp (apparent rate of enzyme inactivation) (WT AtAHAS [5]): 0.32 ± 0.03 min⁻¹
- k3, single progress curve (Supplementary Figure 8) (WT AtAHAS [5]): 0.022 min⁻¹ and 0.018 min⁻¹ and 0.014 min⁻¹
- kiapp, single progress curve (Supplementary Figure 8) (WT AtAHAS [5]): 0.38 min⁻¹ and 0.28 min⁻¹ and 0.3 min⁻¹
- kiapp/k3 (efficiency of accumulative inhibition) (AtAHAS S653T mutant [6]): 39
- efficiency of accumulative inhibition (kiapp/k3) compared to WT (in words) (AtAHAS S653T mutant [6]; S653T vs WT): increased
- k3 (rate of recovery) (AtAHAS S653T mutant [6]): 0.017 ± 0.001 min⁻¹
- kiapp (apparent rate of enzyme inactivation) (AtAHAS S653T mutant [6]): 0.66 ± 0.04 min⁻¹
- k3, single progress curve (Supplementary Figure 8) (AtAHAS S653T mutant [6]): 0.018 min⁻¹ and 0.019 min⁻¹ and 0.015 min⁻¹
- kiapp, single progress curve (Supplementary Figure 8) (AtAHAS S653T mutant [6]): 0.59 min⁻¹ and 0.71 min⁻¹ and 0.69 min⁻¹
- k3 (rate of recovery) (AtAHAS P197T mutant [7]): 0.031 ± 0.004 min⁻¹
- kiapp (apparent rate of enzyme inactivation) (AtAHAS P197T mutant [7]): 1.14 ± 0.11 min⁻¹
- kiapp/k3 (efficiency of accumulative inhibition) (AtAHAS P197T mutant [7]): 37
- k3, single progress curve (Supplementary Figure 8) (AtAHAS P197T mutant [7]): 0.035 min-1 (2×) and 0.023 min-1
- kiapp, single progress curve (Supplementary Figure 8) (AtAHAS P197T mutant [7]): 1.09 min⁻¹ and 0.98 min⁻¹ and 1.34 min⁻¹
- increase in efficiency of accumulative inhibition compared to WT (AtAHAS P197T mutant [7]; P197 mutant vs WT (kiapp/k3)): two-fold
- accumulative inhibition (in words) (AtAHAS W574L mutant [8]): irreversible; also recorded: still can promote accumulative inhibition
- k3 (rate of recovery) (AtAHAS W574L mutant [8]): <1e-12 min⁻¹
- kiapp (apparent rate of enzyme inactivation) (AtAHAS W574L mutant [8]): 0.03 ± 0.006 min⁻¹
- kiapp/k3 (efficiency of accumulative inhibition) (AtAHAS W574L mutant [8]): >10^11
- k3, single progress curve (Supplementary Figure 8) (AtAHAS W574L mutant [8]; [18]): ~ 0 min-1
- kiapp, single progress curve (Supplementary Figure 8) (AtAHAS W574L mutant [8]; [18]): 0.043 min⁻¹ and 0.026 min⁻¹ and 0.025 min⁻¹
- k3 (rate of recovery) (AtAHAS P197L mutant [9]): 0.037 ± 0.003 min⁻¹
- kiapp (apparent rate of enzyme inactivation) (AtAHAS P197L mutant [9]): 1.15 ± 0.09 min⁻¹
- kiapp/k3 (efficiency of accumulative inhibition) (AtAHAS P197L mutant [9]): 31
- k3, single progress curve (Supplementary Figure 8) (AtAHAS P197L mutant [9]): 0.043 min⁻¹ and 0.036 min⁻¹ and 0.032 min⁻¹
- kiapp, single progress curve (Supplementary Figure 8) (AtAHAS P197L mutant [9]): 1.33 min⁻¹ and 1.1 min⁻¹ and 1.03 min⁻¹
- Ki (WT AtAHAS [10]; [17]): 0.041 ± 0.006 µM
